Measured values from the Kinase Knowledgebase extract (Sharma et al. 2016).

Experiments:
PIK3CA (human) = PIK3CA (human) (UniProt P42336); test: Assessment of PIK3CA Kinase Activity
PIK3CG (human) = PIK3CG (human) (UniProt P48736); test: Assessment of PIK3CG Kinase Activity
Sequence of PIK3CG (human) (P48736 whole entry, looked up): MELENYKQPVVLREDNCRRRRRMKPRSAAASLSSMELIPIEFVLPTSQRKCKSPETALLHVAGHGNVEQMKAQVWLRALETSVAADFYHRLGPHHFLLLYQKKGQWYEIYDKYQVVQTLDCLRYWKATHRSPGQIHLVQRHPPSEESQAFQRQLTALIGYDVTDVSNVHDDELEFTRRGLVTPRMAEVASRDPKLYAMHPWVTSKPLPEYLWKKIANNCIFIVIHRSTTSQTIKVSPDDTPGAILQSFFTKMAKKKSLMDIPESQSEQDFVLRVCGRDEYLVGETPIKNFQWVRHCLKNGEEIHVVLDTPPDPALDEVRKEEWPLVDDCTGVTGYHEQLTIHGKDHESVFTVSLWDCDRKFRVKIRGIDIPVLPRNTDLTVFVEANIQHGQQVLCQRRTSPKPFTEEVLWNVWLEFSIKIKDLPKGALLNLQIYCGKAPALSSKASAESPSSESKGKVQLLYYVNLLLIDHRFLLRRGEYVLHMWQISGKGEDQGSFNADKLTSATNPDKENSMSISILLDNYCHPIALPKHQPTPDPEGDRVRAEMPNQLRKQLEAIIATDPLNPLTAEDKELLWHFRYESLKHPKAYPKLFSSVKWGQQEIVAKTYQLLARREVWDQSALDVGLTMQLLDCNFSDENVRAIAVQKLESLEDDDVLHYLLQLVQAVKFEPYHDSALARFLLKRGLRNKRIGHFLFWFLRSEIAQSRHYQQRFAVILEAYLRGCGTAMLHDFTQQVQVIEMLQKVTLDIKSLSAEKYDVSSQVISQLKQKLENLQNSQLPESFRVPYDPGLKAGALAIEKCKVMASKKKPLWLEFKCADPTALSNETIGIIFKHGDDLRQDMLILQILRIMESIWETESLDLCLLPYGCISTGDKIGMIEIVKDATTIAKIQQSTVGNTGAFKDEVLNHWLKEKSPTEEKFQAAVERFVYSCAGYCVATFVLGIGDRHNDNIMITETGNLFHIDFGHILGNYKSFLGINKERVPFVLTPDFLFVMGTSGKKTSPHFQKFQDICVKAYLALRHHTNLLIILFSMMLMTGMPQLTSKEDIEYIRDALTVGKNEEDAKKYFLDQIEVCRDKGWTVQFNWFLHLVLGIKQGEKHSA

Sequence of PIK3CA (human) (P42336 whole entry, looked up): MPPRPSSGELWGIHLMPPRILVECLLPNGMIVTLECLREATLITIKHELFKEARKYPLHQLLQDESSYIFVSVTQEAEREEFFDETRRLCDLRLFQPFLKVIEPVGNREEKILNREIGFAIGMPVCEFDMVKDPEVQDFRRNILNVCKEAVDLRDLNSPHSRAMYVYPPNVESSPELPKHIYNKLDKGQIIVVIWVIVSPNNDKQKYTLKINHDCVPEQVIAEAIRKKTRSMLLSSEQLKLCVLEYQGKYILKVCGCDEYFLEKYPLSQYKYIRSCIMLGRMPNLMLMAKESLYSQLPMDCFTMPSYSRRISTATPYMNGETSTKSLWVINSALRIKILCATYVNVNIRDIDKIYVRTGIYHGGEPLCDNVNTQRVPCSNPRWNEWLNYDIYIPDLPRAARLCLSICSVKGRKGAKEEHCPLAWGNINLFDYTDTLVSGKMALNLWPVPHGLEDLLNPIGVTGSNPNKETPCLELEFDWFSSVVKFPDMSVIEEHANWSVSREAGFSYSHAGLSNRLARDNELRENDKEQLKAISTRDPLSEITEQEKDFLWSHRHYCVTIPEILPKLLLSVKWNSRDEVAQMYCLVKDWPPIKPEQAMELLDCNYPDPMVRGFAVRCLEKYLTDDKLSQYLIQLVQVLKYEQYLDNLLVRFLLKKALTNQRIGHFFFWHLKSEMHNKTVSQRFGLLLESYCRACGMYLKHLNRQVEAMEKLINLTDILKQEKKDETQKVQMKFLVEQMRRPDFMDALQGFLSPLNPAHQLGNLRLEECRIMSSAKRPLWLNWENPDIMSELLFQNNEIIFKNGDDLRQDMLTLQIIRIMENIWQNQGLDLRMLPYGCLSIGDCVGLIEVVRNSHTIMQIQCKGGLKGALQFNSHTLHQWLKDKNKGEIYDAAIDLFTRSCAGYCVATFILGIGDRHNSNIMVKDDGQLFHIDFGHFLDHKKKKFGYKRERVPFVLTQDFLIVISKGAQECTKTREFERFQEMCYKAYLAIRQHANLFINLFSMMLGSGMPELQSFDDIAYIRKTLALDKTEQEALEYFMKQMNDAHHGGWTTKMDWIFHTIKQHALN

| IC50 (PIK3CA (human)) | IC50 (PIK3CG (human)) | SMILES |
| --- | --- | --- |
| 59 nM | 1860 nM | O=C(Nc1ccc(-c2nc3c(c(N4CC5CCC(C4)O5)n2)CNC3)cc1)Nc1cccnc1 |
| 2690 nM | > 10000 nM | CN(C)C1CCN(C(=O)c2ccc(NC(=O)Nc3ccc(-c4nc5c(c(N6CC7CCC(C6)O7)n4)CCN(S(C)(=O)=O)C5)cc3)cc2)CC1 |
| 776 nM | 14000 nM | O=C(Nc1ccc(-c2nc3c(c(N4CC5CCC(C4)O5)n2)CCNC3)cc1)Nc1cccnc1 |
| 4 nM | 70 nM | CNC(=O)Nc1ccc(-c2nc3c(c(N4C5CCC4COC5)n2)CN(S(C)(=O)=O)C3)cc1 |
| 557 nM | > 10000 nM | CNC(=O)Nc1ccc(-c2nc3c(c(N4CC5CCC(C4)O5)n2)CCN(S(C)(=O)=O)C3)cc1 |
| 107 nM | 1240 nM | CS(=O)(=O)N1CCc2c(nc(-c3ccc(NC(=O)Nc4cccnc4)cc3)nc2N2CC3CCC(C2)O3)C1 |
| 321 nM | 3720 nM | CN(C)C1CCN(C(=O)c2ccc(NC(=O)Nc3ccc(-c4nc5c(c(N6C7CCC6COC7)n4)CCNC5)cc3)cc2)CC1 |
| 1790 nM | > 10000 nM | O=C(Nc1ccc(-c2nc3c(c(N4C5CCC4COC5)n2)CCNC3)cc1)Nc1cccnc1 |
| 6 nM | 116 nM | CNC(=O)Nc1ccc(-c2nc3c(c(N4CC5CCC(C4)O5)n2)CN(S(C)(=O)=O)C3)cc1 |
| 288 nM | 7290 nM | CNC(=O)Nc1ccc(-c2nc3c(c(N4C5CCC4COC5)n2)CNC3)cc1 |
| 5 nM | 67 nM | CNC(=O)Nc1ccc(-c2nc3c(c(N4CCOCC4)n2)CNC3)cc1 |
| 67 nM | 573 nM | CN(C)C1CCN(C(=O)c2ccc(NC(=O)Nc3ccc(-c4nc5c(c(N6C7CCC6COC7)n4)CN(S(C)(=O)=O)C5)cc3)cc2)CC1 |
| 4410 nM | > 10000 nM | CNC(=O)Nc1ccc(-c2nc3c(c(N4C5CCC4COC5)n2)CCN(C)C3)cc1 |
| 3760 nM | > 10000 nM | CNC(=O)Nc1ccc(-c2nc3c(c(N4C5CCC4COC5)n2)CCNC3)cc1 |
